Values quoted from earlier work, collected in patent publication US20010006673A1, “LUTEIN- CONTAINING SUPPLEMENT AND PROCESS FOR ENHANCING IMMUNE RESPONSE IN ANIMALS” (priority 1998, published 2001).

Legend:
[1] = system: mouse splenocytes; settings: cited from earlier work
[2] = system: Splenocytes; settings: splenocytes from mice injected peritoneally; cited from earlier work
[3] = system: chemical-induced carcinogenesis; settings: mice; cited from earlier work
[4] = system: lymphocyte; settings: rats; cited from earlier work
[5] = system: tumor necrosis factor (TNF); settings: hamsters; cited from earlier work
[6] = system: human neuroblastoma cell; settings: cited from earlier work

Compound | Ex vivo antibody response to T-dependent antigens [1] | Antibody response to T-dependent antigens [2] | further results
CC1=C(/C=C/C(C)=C/C=C/C(C)=C/C=C/C=C(C)/C=C/C=C(C)/C=C/C2=C(C)C(=O)[C@@H](O)CC2(C)C)C(C)(C)C[C@H](O)C1=O [astaxanthin] | increase | enhanced | 
CC1=C(/C=C/C(C)=C/C=C/C(C)=C/C=C/C=C(C)/C=C/C=C(C)/C=C/C2=C(C)C(=O)CCC2(C)C)C(C)(C)CCC1=O [canthaxanthin] |  |  | Chemical-induced carcinogenesis [3]: prevent; Lymphocyte proliferation [4]: increase; Production of tumor necrosis factor (TNF) by macrophages [5]: enhance
CC1=CCCC(C)(C)C1/C=C/C(C)=C/C=C/C(C)=C/C=C/C=C(C)/C=C/C=C(C)/C=C/C1=C(C)CCCC1(C)C (stereo not drawn) [α-carotene] |  |  | Human neuroblastoma cell proliferation [6]: inhibit
CC1=C(/C=C/C(C)=C/C=C/C(C)=C/C=C/C=C(C)/C=C/C=C(C)/C=C/C2=C(C)CCCC2(C)C)C(C)(C)CCC1 [β-carotene] | increase | enhanced | 
